In patent US8574563B2 (Bristol-Myers Squibb Company, priority 2006, dated 2013):

Each compound was assayed on HCV 1b-377-neo replicon cells (assay: HCV replicon assay, HCV 1b-377-neo replicon cells (1b FRET)). Conditions: HCV 1b-377-neo replicon cells; HCV 1b genotype; read-out: EC50 range against HCV 1b (Table 2, Range).
Type: cell-based, Hepatitis C virus genotype 1b
Method in brief: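 Compounds tested in HCV genotype 1b-377-neo replicon cells with a FRET read-out. Cells resistant to a reference NS5A inhibitor through a Y2065H NS5A mutation were run alongside wild-type cells.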
Work on `CN(C)CC(=O)N[C@@H](C(=O)N1CCC[C@H]1c1ncc(-c2ccc(-c3ccc(-c4c[nH]c([C@@H]5CCCN5C(=O)[C@H]5CCCO5)n4)cc3)cc2)[nH]1)c1ccccc1` [Example 120-8, N^2,N^2-dimethyl-N-((1R)-2-oxo-1-phenyl-2-((2S)-2-(5-(4′-(2-((2S)-1-((2R)-tetrahydro-2-furanylcarbonyl)-2-pyrrolidinyl)-1H-imidazol-4-yl)-4-biphenylyl)-1H-imidazol-2-yl)-1-pyrrolidinyl)ethyl) glycinamide] yielded an EC50 of 1 to 99 nM. `CCN(CC)[C@@H](C(=O)N1CCC[C@H]1c1ncc(-c2ccc(-c3ccc(-c4cnc([C@@H]5CCCN5C(=O)C5(NC(=O)OC)CCC5)[nH]4)cc3)cc2)[nH]1)c1ccccc1` [Example M41, methyl (1-(((2S)-2-(5-(4′-(2-((2S)-1-((2R)-2-(diethylamino)-2-phenylacetyl)-2-pyrrolidinyl)-1H-imidazol-5-yl)-4-biphenylyl)-1H-imidazol-2-yl)-1-pyrrolidinyl)carbonyl)cyclobutyl) carbamate] was tested, and the EC50 was 1 to 99 nM.

Same assay, conditions: Hepatitis C virus, HCV 1b-377-neo replicon cells; HCV 1b genotype; read-out: EC50 range against HCV 1b (Table 2, Range)
For `COC(=O)N[C@@H](C(=O)N1CCC[C@H]1c1ncc(-c2ccc(-c3ccc(-c4cnc([C@@H]5CCCN5C(=O)N5CCN(C)CC5)[nH]4)cc3)cc2)[nH]1)c1ccccc1` [Example 29, methyl ((1R)-2-((2S)-2-(5-(4′-(2-((2S)-1-((4-methyl-1-piperazinyl)carbonyl)-2-pyrrolidinyl)-1H-imidazol-5-yl)-4-biphenylyl)-1H-imidazol-2-yl)-1-pyrrolidinyl)-2-oxo-1-phenylethyl)carbamate], the EC50 was 0.001 to 0.999 nM. `CCN(CC)[C@@H](C(=O)N1CCC[C@H]1c1ncc(-c2ccc(-c3ccc(-c4cnc([C@@H]5CCCN5C(=O)[C@@H](NC5=NCCN5)C(C)C)[nH]4)cc3)cc2)[nH]1)c1ccccc1` [cj-11g, N-((1S)-1-(((2S)-2-(5-(4′-(2-((2S)-1-((2R)-2-(diethylamino)-2-phenylacetyl)-2-pyrrolidinyl)-1H-imidazol-5-yl)-4-biphenylyl)-1H-imidazol-2-yl)-1-pyrrolidinyl)carbonyl)-2-methylpropyl)-4,5-dihydro-1H-imidazol-2-amine] gave an EC50 of 1 to 99 nM. In the case of `COC(=O)N[C@H](C(=O)N1CCC[C@H]1c1ncc(-c2ccc(-c3ccc(-c4cnc([C@@H]5CCCN5C(=O)[C@@H](NC(=O)OC)C(C)C)[nH]4)c(F)c3)cc2F)[nH]1)C(C)C` [Example D58, methyl ((1S)-1-(((2S)-2-(5-(3,3′-difluoro-4′-(2-((2S)-1-((2S)-2-((methoxycarbonyl)amino)-3-methylbutanoyl)-2-pyrrolidinyl)-1H-imidazol-5-yl)-4-biphenylyl)-1H-imidazol-2-yl)-1-pyrrolidinyl)carbonyl)-2-methylpropyl) carbamate], the EC50 is reported as 0.001 to 0.999 nM. Work on `CCOC(=O)N[C@@H](C)C(=O)N1CCC[C@H]1c1ncc(-c2ccc(-c3ccc(-c4cnc([C@@H]5CCCN5C(=O)[C@@H](c5ccccc5)N(CC)CC)[nH]4)cc3)cc2)[nH]1` [Example M31, ethyl ((1S)-2-((2S)-2-(5-(4′-(2-((2S)-1-((2R)-2-(diethylamino)-2-phenylacetyl)-2-pyrrolidinyl)-1H-imidazol-5-yl)-4-biphenylyl)-1H-imidazol-2-yl)-1-pyrrolidinyl)-1-methyl-2-oxoethyl)carbamate] yielded an EC50 of 1 to 99 nM. `C=CC[C@H](NC(=O)OC)C(=O)N1CCC[C@H]1c1ncc(-c2ccc(-c3ccc(-c4cnc([C@@H]5CCCN5C(=O)[C@@H](c5ccccc5)N(CC)CC)[nH]4)cc3)cc2)[nH]1` [Example M60, methyl ((1S)-1-(((2S)-2-(5-(4′-(2-((2S)-1-((2R)-2-(diethylamino)-2-phenylacetyl)-2-pyrrolidinyl)-1H-imidazol-5-yl)-4-biphenylyl)-1H-imidazol-2-yl)-1-pyrrolidinyl)carbonyl)-3-buten-1-yl)carbamate] showed an EC50 of 1 to 99 nM. `CCN(CC)[C@@H](C(=O)N1CCC[C@H]1c1ncc(-c2ccc(-c3ccc(-c4cnc([C@@H]5CCCN5C(=O)[C@@H](NC(=O)OC)C5CC5)[nH]4)cc3)cc2)[nH]1)c1ccccc1` [Example M57, methyl ((1S)-1-cyclopropyl-2-((2S)-2-(5-(4′-(2-((2S)-1-((2R)-2-(diethylamino)-2-phenylacetyl)-2-pyrrolidinyl)-1H-imidazol-5-yl)-4-biphenylyl)-1H-imidazol-2-yl)-1-pyrrolidinyl)-2-oxoethyl)carbamate] was tested, and the EC50 was 1 to 99 nM. `COC(=O)N[C@@H](C(=O)N1CCC[C@H]1c1ncc(-c2ccc(-c3ccc(-c4cnc([C@@H]5CCCN5C(=O)Cc5ccc(C)cc5)[nH]4)cc3)cc2)[nH]1)c1ccccc1` [Example 84-70, methyl ((1R)-2-((2S)-2-(5-(4′-(2-((2S)-1-((4-methylphenyl)acetyl)-2-pyrrolidinyl)-1H-imidazol-5-yl)-4-biphenylyl)-1H-imidazol-2-yl)-1-pyrrolidinyl)-2-oxo-1-phenylethyl)carbamate] gave an EC50 of 1 to 99 nM. For `CC(C)[C@H](Nc1ncccn1)C(=O)N1[C@@H]2C[C@@H]2C[C@H]1c1ncc(-c2ccc(-c3ccc(-c4cnc([C@@H]5C[C@H]6C[C@H]6N5C(=O)[C@@H](Nc5ncccn5)C(C)C)[nH]4)cc3)cc2)[nH]1` [Example M144, N,N′-(4,4′-biphenyldiylbis(1H-imidazole-4,2-diyl(1R,3S,5R)-2-azabicyclo[3.1.0]hexane-3,2-diyl((2S)-3-methyl-1-oxo-1,2-butanediyl)))di(2-pyrimidinamine)], the EC50 was 0.001 to 0.999 nM. In the case of `COC(=O)N[C@H](C(=O)N1CCC[C@H]1c1nc(-c2ccc(-c3ccc(-c4c[nH]c([C@@H]5CCCN5C(=O)[C@@H](NC5CCOCC5)C(C)C)n4)cc3)cc2)c[nH]1)C(C)C` [Example F49, methyl ((1S)-2-methyl-1-(((2S)-2-(4-(4′-(2-((2S)-1-(N-(tetrahydro-2H-pyran-4-yl)-L-valyl)-2-pyrrolidinyl)-1H-imidazol-4-yl)-4-biphenylyl)-1H-imidazol-2-yl)-1-pyrrolidinyl)carbonyl)propyl)carbamate], the EC50 is reported as 1 to 99 nM. `COC(=O)NCC(=O)N1CCC[C@H]1c1ncc(-c2ccc(-c3ccc(-c4cnc([C@@H]5CCCN5C(=O)[C@@H](NC(=O)OC)C(C)C)[nH]4)cc3)cc2)[nH]1` [Example M73, methyl (2-((2S)-2-(5-(4′-(2-((2S)-1-((2S)-2-((methoxycarbonyl)amino)-3-methylbutanoyl)-2-pyrrolidinyl)-1H-imidazol-5-yl)-4-biphenylyl)-1H-imidazol-2-yl)-1-pyrrolidinyl)-2-oxoethyl)carbamate] showed an EC50 of 100 to 999 nM. Compound `CC(=O)CCC(=O)N1CCC[C@H]1c1ncc(-c2ccc(-c3ccc(-c4cnc([C@@H]5CCCN5C(=O)[C@@H](c5ccccc5)N(C)C)[nH]4)cc3)cc2)[nH]1` [Example 94-37, 5-((2S)-2-(5-(4′-(2-((2S)-1-((2R)-2-(dimethylamino)-2-phenylacetyl)-2-pyrrolidinyl)-1H-imidazol-5-yl)-4-biphenylyl)-1H-imidazol-2-yl)-1-pyrrolidinyl)-5-oxo-2-pentanone] has an EC50 of 1 to 99 nM. In the case of `COC(=O)NCC(=O)N1CC2(CC2)C[C@H]1c1nc(-c2ccc(-c3ccc(-c4c[nH]c([C@@H]5CC6(CC6)CN5C(=O)CNC(=O)OC)n4)cc3)cc2)c[nH]1` [Example M146, methyl (2-((6S)-6-(4-(4′-(2-((6S)-5-(((methoxycarbonyl)amino)acetyl)-5-azaspiro[2.4]hept-6-yl)-1H-imidazol-4-yl)-4-biphenylyl)-1H-imidazol-2-yl)-5-azaspiro[2.4]hept-5-yl)-2-oxoethyl)carbamate], the EC50 is reported as 0.001 to 0.999 nM. In the case of `COC(=O)N[C@@H](C(=O)N1CCC[C@H]1c1ncc(-c2ccc(-c3ccc(-c4cnc([C@@H]5CCCN5C(=O)C(c5cccc(Cl)c5)N(C)C)[nH]4)cc3)cc2)[nH]1)c1ccccc1` (stereo partly drawn) [Example 84-57, methyl ((1R)-2-((2S)-2-(5-(4′-(2-((2S)-1-((3-chlorophenyl)(dimethylamino)acetyl)-2-pyrrolidinyl)-1H-imidazol-5-yl)-4-biphenylyl)-1H-imidazol-2-yl)-1-pyrrolidinyl)-2-oxo-1-phenylethyl)carbamate], the EC50 is reported as 0.001 to 0.999 nM. `CN(C)[C@@H](C(=O)N1CCC[C@H]1c1ncc(-c2ccc(-c3ccc(-c4cnc([C@@H]5CCCN5C(=O)[C@@H](c5ccccc5)N(C)C)[nH]4)nn3)cc2)[nH]1)c1ccccc1` [Example 152j-9, (1R)-2-((2S)-2-(5-(6-(4-(2-((2S)-1-((2R)-2-(dimethylamino)-2-phenylacetyl)-2-pyrrolidinyl)-1H-imidazol-5-yl)phenyl)-3-pyridazinyl)-1H-imidazol-2-yl)-1-pyrrolidinyl)-N,N-dimethyl-2-oxo-1-phenylethanamine] gave an EC50 of 1 to 99 nM. In the case of `COC(=O)N[C@@H](C)C(=O)N1[C@@H](C)CC[C@H]1c1nc(-c2ccc(-c3ccc(-c4c[nH]c([C@@H]5CC[C@H](C)N5C(=O)[C@H](C)NC(=O)OC)n4)cc3)cc2)c[nH]1` [Example M157, methyl ((1S)-2-((2S,5S)-2-(4-(4′-(2-((2S,5S)-1-(N-(methoxycarbonyl)-L-alanyl)-5-methyl-2-pyrrolidinyl)-1H-imidazol-4-yl)-4-biphenylyl)-1H-imidazol-2-yl)-5-methyl-1-pyrrolidinyl)-1-methyl-2-oxoethyl)carbamate], the EC50 is reported as 0.001 to 0.999 nM. Compound `CN(C)[C@@H](C(=O)N1CCC[C@H]1c1ncc(-c2ccc(-c3ccc(-c4cnc([C@@H]5CCCN5C(=O)[C@@H](c5ccccc5)N(C)C)[nH]4)cc3C(F)(F)F)cc2)[nH]1)c1ccccc1` [Example 130] has an EC50 of 0.001 to 0.999 nM. For `COC(=O)N[C@@H](C(=O)N1CCC[C@H]1c1ncc(-c2ccc(-c3ccc(-c4cnc([C@@H]5CCCN5C(=O)CC5CC5)[nH]4)cc3)cc2)[nH]1)c1ccccc1` [Example 34, methyl ((1R)-2-((2S)-2-(5-(4′-(2-((2S)-1-(cyclopropylacetyl)-2-pyrrolidinyl)-1H-imidazol-5-yl)-4-biphenylyl)-1H-imidazol-2-yl)-1-pyrrolidinyl)-2-oxo-1-phenylethyl)carbamate], the EC50 was 0.001 to 0.999 nM.
